# Laboratory results from patent US11638428B2, “Nematocidal heterocyclic amides” (CORTEVA AGRISCIENCE LLC, priority 2015, dated 2023).
# Tested on: cucumber seedlings
# Test: Test A: phytotoxicity to the cucumber seedlings of the test units
# Assay type: in vivo
# Details: 500 ppm active ingredient applied to soil
# Procedure: Control of the southern root-knot nematode (Meloidogyne incognita) through contact and/or systemic means was evaluated in test units consisting of small open containers filled with a sandy soil mixture and cucumber seedlings. Test compounds were formulated using a solution containing 50% acetone and 50% water. […] Each test was replicated 3 times. After treatment, the test units were allowed to dry for 1 hour, after which time about 400 second-stage juvenile (J2) larvae and 800 eggs were pipetted into the soil. The test units were held at 27° C. and watered as needed for 7 days. Nematocidal efficacy was determined by the amount of root gall formation observed when compared to an untreated control. No gall formation was indicative of 100% nematode control. […] No nematode control rating was given to compounds showing significant phytotoxicity.
row,SMILES,phytotoxicity
1,CC(NC(=O)c1ccoc1Cl)C1CC1 (racemic) [Compound 11],no significant phytotoxicity
2,"CC(NC(=O)c1sccc1C(C)(C)C)C(C)(C)C (single isomer, unassigned) [Compound 92]",no significant phytotoxicity
3,CCC(C)C(C)NC(=O)c1ccoc1C (stereo not shown) [Compound 1],no significant phytotoxicity
4,Cc1occc1C(=O)N(C)C(C)C1CC1 (stereo not shown) [Compound 2],no significant phytotoxicity
5,Cc1occc1C(=O)NC(C)C [Compound 3],no significant phytotoxicity
6,Cc1occc1C(=O)NC(C)C(C)C (stereo not shown) [Compound 4],no significant phytotoxicity
7,CCCC(C)NC(=O)c1ccoc1C (stereo not shown) [Compound 5],no significant phytotoxicity
8,Cc1occc1C(=O)NC(C)C1CC1 (stereo not shown) [Compound 6],no significant phytotoxicity
9,Cc1occc1C(=O)NC(C)(C)C1CC1 [Compound 7],no significant phytotoxicity
10,CC(C)(NC(=O)c1ccoc1Cl)C1CC1 [Compound 8],no significant phytotoxicity
11,CC(C)C(C)(C)NC(=O)c1ccoc1Cl [Compound 10],no significant phytotoxicity
12,COCC(C)(C)NC(=O)c1ccoc1Cl [Compound 12],no significant phytotoxicity
13,CSCC(C)(C)NC(=O)c1ccoc1Cl [Compound 14],no significant phytotoxicity
14,CCC(C)NC(=O)c1ccoc1Cl (stereo not shown) [Compound 16],no significant phytotoxicity
15,CCCC(C)NC(=O)c1ccoc1Cl (stereo not shown) [Compound 17],no significant phytotoxicity
16,CC(C)(C)CC(C)(C)NC(=O)c1ccoc1Cl [Compound 18],no significant phytotoxicity
17,CC(C)CC(C)NC(=O)c1ccoc1Cl (stereo not shown) [Compound 19],no significant phytotoxicity
18,CC(NC(=O)c1ccoc1Cl)C1CCCC1 (stereo not shown) [Compound 20],no significant phytotoxicity
19,CC(NC(=O)c1ccoc1Cl)C1CCCCC1 (stereo not shown) [Compound 21],no significant phytotoxicity
20,CC(NC(=O)c1ccoc1Cl)C1(C)CC1 (stereo not shown) [Compound 22],no significant phytotoxicity
21,CC(NC(=O)c1ccoc1Cl)C1CCC1 (stereo not shown) [Compound 23],no significant phytotoxicity

row,SMILES,phytotoxicity
1,CC(NC(=O)c1ccoc1Cl)C(F)(F)F (stereo not shown) [Compound 24],no significant phytotoxicity
2,CC(C)C(C)NC(=O)c1ccoc1Cl (stereo not shown) [Compound 26],no significant phytotoxicity
3,"CC(NC(=O)c1ccoc1Cl)C(C)(C)C (stereo not shown) [Compound 27, 2-chloro-N-(1,2,2-trimethylpropyl)-3-furancarboxamide]",no significant phytotoxicity
4,CCCCCC(C)NC(=O)c1ccoc1Cl (stereo not shown) [Compound 29],no significant phytotoxicity
5,CC(C)CCCC(C)NC(=O)c1ccoc1Cl (stereo not shown) [Compound 30],no significant phytotoxicity
6,CC(NC(=O)c1ccoc1Br)C1CC1 (stereo not shown) [Compound 32],no significant phytotoxicity
7,CC(C)C(C)NC(=O)c1ccoc1Br (stereo not shown) [Compound 33],no significant phytotoxicity
8,CCCC(C)NC(=O)c1ccoc1Br (stereo not shown) [Compound 34],no significant phytotoxicity
9,CC(NC(=O)c1ccoc1Br)C(C)(C)C (stereo not shown) [Compound 35],no significant phytotoxicity
10,Cc1occc1C(=O)N[C@H](C)C1CC1 [Compound 36],no significant phytotoxicity
11,Cc1occc1C(=O)N[C@@H](C)C1CC1 [Compound 37],no significant phytotoxicity
12,Cc1occc1C(=O)N[C@H](C)C(C)(C)C [Compound 39],no significant phytotoxicity
13,"C[C@H](NC(=O)c1ccoc1Cl)C(C)(C)C [Compound 40, 2-chloro-N-[(1S)-1,2,2-trimethylpropyl]-3-furancarboxamide]",no significant phytotoxicity
14,C[C@H](NC(=O)c1ccoc1Br)C(C)(C)C [Compound 42],no significant phytotoxicity
15,CC(C)[C@H](C)NC(=O)c1ccoc1Cl [Compound 43],no significant phytotoxicity
16,"C[C@@H](NC(=O)c1ccoc1Cl)C1CC1 [Compound 45, 2-chloro-N-[(1R)-1-cyclopropylethyl]-3-furancarboxamide]",no significant phytotoxicity
17,Cc1occc1C(=O)NC(C1CC1)C1CC1 [Compound 46],no significant phytotoxicity
18,Cc1occc1C(=O)NC1(C2CC2)CC1 [Compound 47],no significant phytotoxicity
19,Cc1ccsc1C(=O)NC(C)C(C)C (stereo not shown) [Compound 48],no significant phytotoxicity
20,CC(NC(=O)c1sccc1Br)C1CC1 (stereo not shown) [Compound 50],no significant phytotoxicity
21,Cc1ccsc1C(=O)NC(C1CC1)C1CC1 [Compound 52],no significant phytotoxicity

row,SMILES,phytotoxicity
1,CCC(NC(=O)c1ccoc1Cl)C1CC1 (stereo not shown) [Compound 53],no significant phytotoxicity
2,CC(NC(=O)c1ncsc1I)C1CC1 (stereo not shown) [Compound 56],no significant phytotoxicity
3,CSc1ccsc1C(=O)NC(C)C1CC1 (stereo not shown) [Compound 58],no significant phytotoxicity
4,Cc1ncc(C(=O)NC(C)C2CC2)s1 (stereo not shown) [Compound 60],no significant phytotoxicity
5,CC(NC(=O)c1ncsc1Cl)C1CC1 (stereo not shown) [Compound 62],no significant phytotoxicity
6,CC(NC(=O)c1ncsc1Br)C1CC1 (stereo not shown) [Compound 63],no significant phytotoxicity
7,CC(NC(=O)c1sccc1C(F)(F)F)C1CC1 (stereo not shown) [Compound 65],no significant phytotoxicity
8,CCC(NC(=O)c1ccoc1C)C1CC1 (stereo not shown) [Compound 67],no significant phytotoxicity
9,Cc1ncsc1C(=O)NC(C)C1CC1 (stereo not shown) [Compound 70],no significant phytotoxicity
10,CC(NC(=O)c1ncsc1C(F)(F)F)C1CC1 (stereo not shown) [Compound 72],no significant phytotoxicity
11,C[C@@H](NC(=O)c1ccoc1Br)C1CC1 [Compound 74],no significant phytotoxicity
12,CC(C)[C@@H](C)NC(=O)c1ccoc1Cl [Compound 75],no significant phytotoxicity
13,CC[C@H](C)NC(=O)c1ccoc1Cl [Compound 77],no significant phytotoxicity
14,Cc1occc1C(=O)NC(C)CC(C)(C)C (stereo not shown) [Compound 80],no significant phytotoxicity
15,CC(C)C(C)NC(=O)c1sccc1C(C)(C)C (stereo not shown) [Compound 89],no significant phytotoxicity
16,CC(NC(=O)c1sccc1C(C)(C)C)C(C)(C)C (stereo not shown) [Compound 90],no significant phytotoxicity
17,CC(NC(=O)c1sccc1C#N)C(C)(C)C (stereo not shown) [Compound 95],no significant phytotoxicity
18,Cc1occc1C(=O)N[C@H](C)C(C)C [Compound 96],no significant phytotoxicity
19,Cc1occc1C(=O)N[C@@H](C)C(C)C [Compound 101],no significant phytotoxicity
